Data on one compound can be found in patent publication US7893256B2, “Azabicycloalkane compounds” (Theravance, Inc., priority 2003, dated 2011).

Each structure is given as a SMILES string. pEC50, pKi: −log10 of the molar value. A value given as a limit tells only on which side of the number the result lay.

Assay [1] concerns the target T1, human β2 adrenergic receptor (Homo sapiens, UniProt P07550).
T1 construct: expressed in transfected cells; membranes
In words: Whole-cell cAMP Flashplate assay in CHO cell lines heterologously expressing human β2 adrenergic receptor (Assay Test Procedure C). It counts as cell-based. On the procedure:
cAMP assays were performed in a radioimmunoassay format using the Flashplate Adenylyl Cyclase Activation Assay System with [^125I]-cAMP (NEN SMP004, PerkinElmer Life Sciences Inc., Boston, Mass.), according to the manufacturers instructions. For the determination of […] receptor agonist potency (EC50), CHO-K1 cell lines stably expressing cloned human β1, β2 or β3 adrenergic receptors were grown to near confluency in HAM's F-12 media supplemented with 10% FBS and Geneticin (250 μg/mL). Cells were rinsed with PBS and detached in dPBS (Dulbecco's Phosphate Buffered Saline, without CaCl2 and MgCl2) containing 2 mM EDTA or Trypsin-EDTA solution (0.05% trypsin/0.53 mM EDTA). After counting cells in Coulter cell counter, cells were pelleted by centrifugation at 1,000 rpm and re-suspended in stimulation buffer containing IBMX (PerkinElmer Kit) pre-warmed to room temperature to a concentration of 1.6×10^6 to 2.8×10^6 cells/mL. About 60,000 to 80,000 cells per well were used in this assay. […] The amount of cAMP produced (pmol/well) was calculated based on the counts observed for the samples and cAMP standards as described in the manufacturer's user manual. Data were analyzed by nonlinear regression analysis with the GraphPad Prism Software package (GraphPad Software, Inc., San Diego, Calif.) with the sigmoidal equation. […]

The target of another assay is T2, hM3 receptor (Homo sapiens, UniProt P20309).
T2 construct: expressed in transfected cells
The assay is described as follows: Blockade of agonist-mediated calcium release via FLIPR assays (Assay Test Procedure D, C). It counts as cell-based. Conditions: CHO cells stably expressing the hM3 receptor. The text has this:
Muscarinic receptor subtypes (M1, M3 and M5 receptors), which couple to Gq proteins, activate the phospholipase C (PLC) pathway upon agonist binding to the receptor. As a result, activated PLC hydrolyzes phosphatyl inositol diphosphate (PIP2) to diacylglycerol (DAG) and […] (IP3), which in turn generates calcium release from intracellular stores, i.e., endoplasmic and sarcoplasmic reticulum. The FLIPR (Molecular Devices, Sunnyvale, Calif.) assay capitalizes on this increase in intracellular calcium by using a calcium sensitive dye (Fluo-4AM, Molecular Probes, Eugene, Oreg.) that fluoresces when free calcium binds. This fluorescence event is measured in real time by the FLIPR, which detects the change in fluorescence from a monolayer of cells cloned with human M1 and M3, and chimpanzee M5 receptors. Antagonist potency can be determined by the ability of antagonists to inhibit agonist-mediated increases in intracellular calcium. […]
To determine antagonist potency, the dose-dependent stimulation of intracellular Ca^2+ release for oxotremorine was first determined so that antagonist potency can later be measured against oxotremorine stimulation at an EC90 concentration. […]
The change of fluorescence is expressed as maximum fluorescence minus baseline fluorescence for each well. […]

In general, pEC50 refers to −log10 of the EC50, conventionally taken in molar units. For orientation: pKi means the Ki on a negative log10 scale, so that one unit is a factor of ten.

T1 sequence (P07550 whole entry): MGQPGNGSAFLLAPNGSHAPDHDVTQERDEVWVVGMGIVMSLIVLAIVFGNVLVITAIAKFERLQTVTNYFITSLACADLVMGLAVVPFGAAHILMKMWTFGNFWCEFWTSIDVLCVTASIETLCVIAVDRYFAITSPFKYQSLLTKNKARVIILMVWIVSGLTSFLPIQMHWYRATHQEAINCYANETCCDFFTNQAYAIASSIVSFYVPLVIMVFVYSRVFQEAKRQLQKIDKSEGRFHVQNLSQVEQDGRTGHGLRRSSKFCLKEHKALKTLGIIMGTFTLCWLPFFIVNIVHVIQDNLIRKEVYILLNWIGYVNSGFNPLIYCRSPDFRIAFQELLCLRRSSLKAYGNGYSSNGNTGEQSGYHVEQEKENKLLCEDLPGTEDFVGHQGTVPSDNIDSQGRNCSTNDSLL
T2 sequence (P20309 whole entry): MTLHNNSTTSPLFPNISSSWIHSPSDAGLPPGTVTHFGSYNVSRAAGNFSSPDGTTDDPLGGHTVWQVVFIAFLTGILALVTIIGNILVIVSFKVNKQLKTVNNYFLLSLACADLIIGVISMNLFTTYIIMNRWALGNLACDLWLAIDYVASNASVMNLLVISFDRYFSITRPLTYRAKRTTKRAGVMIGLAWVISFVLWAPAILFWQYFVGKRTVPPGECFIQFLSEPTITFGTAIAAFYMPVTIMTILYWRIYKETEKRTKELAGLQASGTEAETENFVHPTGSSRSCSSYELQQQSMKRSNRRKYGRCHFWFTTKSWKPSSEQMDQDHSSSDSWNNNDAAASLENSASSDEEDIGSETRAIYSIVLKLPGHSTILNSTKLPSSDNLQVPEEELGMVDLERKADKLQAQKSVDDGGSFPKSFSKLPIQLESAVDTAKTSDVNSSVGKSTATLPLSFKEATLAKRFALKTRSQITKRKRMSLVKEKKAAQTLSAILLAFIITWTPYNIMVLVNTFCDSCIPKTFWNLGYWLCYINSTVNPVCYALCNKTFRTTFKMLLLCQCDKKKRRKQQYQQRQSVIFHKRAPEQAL

`C[N+]1(CCCCCCCCCNC[C@H](O)c2ccc(O)c3[nH]c(=O)ccc23)C2CC(OC(=O)C(O)(c3cccs3)c3cccs3)CC1C1OC12.C[N+]1(CCCCCCCCCNC[C@H](O)c2ccc(O)c3[nH]c(=O)ccc23)C2CC(OC(=O)C(O)(c3cccs3)c3cccs3)CC1C1OC12.O=C([O-])C(F)(F)F.O=C([O-])C(F)(F)F` (stereo partly drawn) [Example 1, 7-(2-Hydroxy-2,2-dithiophen-2-ylacetoxy)-9-{9-[(R)-2-hydroxy-2-(8-hydroxy-2-oxo-1,2-dihydroquinolin-5-yl)ethylamino]nonyl}-9-methyl-3-oxa-9-azonia-tricyclo[3.3.1.0^2,4]nonane Ditrifluoroacetate] had a pEC50 in assay [1] (cAMP, CHO-K1 cells expressing cloned human β2 receptor) greater than 8.00. Besides, in assay [1] (receptor subtype selectivity, functional, β2 over β1), the “ratio of EC50(β1)/EC50(β2)” value was “greater than 10”. Moreover, the pKi on hM3 receptor was greater than 7.30.
